Read-outs that look alike come from different tables or passages of the source. Blank lines part the entries; values can stand above or below the compound they belong to.
Columns and labels:
Type in all cases: cell-based
[1] = system: Escherichia coli ATCC25922 strain (Escherichia coli A); assay: Combinational effect of test compound and antibacterial compound, checkerboard FIC index
Experimental: (§1) By using a broth microdilution method, the combinational effect of antibacterial activity of a test compound and an antibacterial compound was evaluated.
(§2) As bacterial strains, an Escherichia coli ATCC25922 strain (hereinafter, called Escherichia coli A), a Klebsiella pneumoniae ATCC13883 strain (hereinafter, called Klebsiella pneumoniae A), and a Pseudomonas aeruginosa ATCC27853 strain (hereinafter, called Pseudomonas aeruginosa A) were used.
(§3) The minimum inhibitory concentration (hereinafter, called MIC) was measured according to the Clinical and Laboratory Standards Institute (CLSI) standard method by using the following broth microdilution method.
(§4) The bacterial cells that had been cultured overnight on a Mueller Hinton agar medium were scraped off, suspended at a density equivalent to 0.5 McFarland standard. The obtained suspension was diluted at 10 fold, thereby obtaining an inoculum. Cation-adjusted Mueller Hinton media containing only a test compound, containing only an antibacterial compound, or containing a test compound and an antibacterial compound were inoculated with 0.005 mL of the inoculum, and the cells were cultured at 35° C. for 18 to 20 hours. The minimum drug concentration at which the growth of bacteria was not visually observed was defined as MIC (μg/mL).
(§5) The FIC Index is the minimum value calculated by the following formula.
(§6) FIC Index=(MIC value obtained in a case where test compound is used in combination/MIC value obtained in a case where test compound is used alone)+(MIC value obtained in a case where antibacterial compound is used in combination/MIC value obtained in a case where antibacterial compound is used alone)
(§7) In a case where the FIC Index was 0.5 or less, it was decided that the use of two drugs in combination brings about a synergistic effect.
(§8) In a case where the FIC Index was more than 0.5 and 1 or less, it was decided that the use of two drugs in combination brings about an additive effect. (Diagnostic Microbiology and Infectious Disease, 2004, Vol. 49, p. 197)

[2] = system: Klebsiella pneumoniae ATCC13883 strain (Klebsiella pneumoniae A); assay: as above
Experimental: as §1, §2, §3, §4, §5, §6, §7, §8

[3] = system: Pseudomonas aeruginosa ATCC27853 strain (Pseudomonas aeruginosa A); assay: as above; settings: for FIC index: Pseudomonas aeruginosa A, checkerboard; for combinational effect with other antibacterial compounds: main strains of Gram-negative bacteria, summary of Tables 40 to 42
Experimental: as §1, §2, §3, §4, §5, §6, §7, §8

[4] = system: Escherichia coli TK-1747 strain producing CTX-M-15 (strain A); assay: MIC of test compound alone or with β-lactamase inhibitor at 4 μg/mL
Experimental: (§9) By using a broth microdilution method, the combinational effect of a test compound and a β-lactamase inhibitor was evaluated.
(§10) The evaluation test for antibacterial activity was performed in the same manner as in Test Example 1.
Escherichia coli TK-1747 strain producing CTX-M-15 (hereinafter, called strain A),

[5] = system: Klebsiella pneumoniae Y-1020 strain producing KPC-3 and SHV-12 (strain B); assay: as above; settings: for MIC: Strain B; for antibacterial activity in combination with a β-lactamase inhibitor versus without: for all the bacterial strains (strains A to E), summary of Tables 43 to 47
Experimental: as §9, §10

[6] = system: Klebsiella pneumoniae Y-1133 strain producing NDM-1, OXA-48, and CTX-M-15 (strain C); assay: as above
Experimental: as §9, §10
Klebsiella pneumoniae Y-1133 strain producing NDM-1, OXA-48, and CTX-M-15 (hereinafter, called strain C),
(§11) An antibacterial activity evaluation test was performed in the same manner as in Test Example 6.
(§12) As the bacterial strain, the strains B, C, and D producing β-lactamase and a Klebsiella pneumoniae Y-1069 strain (hereinafter, called strain F) producing OXA-48 and CTX-M-15 were used.

[7] = system: Escherichia coli TK-3113 strain producing IMP-8 (strain D); assay: as above
Experimental: as §9, §10
Escherichia coli TK-3113 strain producing IMP-8 (hereinafter, called strain D),
as §11, §12

[8] = system: Escherichia coli TK-1765 strain producing CMY-2 (strain E); assay: as above
Experimental: as §9, §10
Escherichia coli TK-1765 strain producing CMY-2 (hereinafter, called strain E)

[9] = system: Carbapenem-resistant Acinetobacter A515 strain; assay: MIC of test compound combined with a plurality of β-lactamase inhibitors; settings: for antibacterial activity in combination with two β-lactamase inhibitors: against all the bacterial strains (Acinetobacter A514 and A515), with SBT and AVI
Experimental: (§13) By using a broth microdilution method, the combinational effect of a test compound and a plurality of β-lactamase inhibitors was evaluated.
as §10
(§14) As bacterial strains, Carbapenem-resistant Acinetobacter A514 and A515 strains were used.

[10] = system: Carbapenem-resistant Acinetobacter A514 strain; assay: as above
Experimental: as §13, §10, §14

[11] = test compound alone (β-lactamase inhibitor N/A)
[12] = Table 48, against the Carbapenem-resistant Acinetobacter A514 and A515 strains (so in the source), read-out: MIC
[13] = Table 49, against the Carbapenem-resistant Acinetobacter A515 strain, read-out: MIC

Compound: CC(C)(O/N=C(\C(=O)N[C@@H]1C(=O)N2C[C@@](C(=O)O)(N3CCN(NC(=O)C(=O)c4ccc(O)c(O)c4Cl)C3=O)S[C@H]12)c1csc(N)n1)C(=O)O [Compound A]
FIC index ([1]; in combination with AMK): 0.5625
FIC index ([1]; in combination with CAZ): 0.625
FIC index ([1]; in combination with IPM): 0.5156
FIC index ([1]; in combination with LVFX): 0.75
FIC index ([1]; in combination with MPC): 0.5078
FIC index ([1]; in combination with PIPC): 0.5625
FIC index ([1]; in combination with RFP): 0.625
FIC index ([1]; in combination with TC): 0.75
FIC index ([1]; in combination with TMP): 0.625
FIC index ([2]; in combination with CAZ): 0.625
FIC index ([2]; in combination with IPM): 0.375
FIC index ([2]; in combination with LVFX): 0.75
FIC index ([2]; in combination with MPC): <0.5
FIC index ([2]; in combination with PIPC): 0.375
FIC index ([2]; in combination with PL-B): 0.125
FIC index ([2]; in combination with RFP): 0.502
FIC index ([2]; in combination with TMP): 0.375
FIC index ([3]; in combination with AMK): 0.5
FIC index ([3]; in combination with CAZ): 0.5625
FIC index ([3]; in combination with IPM): 0.252
FIC index ([3]; in combination with LVFX): 0.5625
FIC index ([3]; in combination with PIPC): 0.5
FIC index ([3]; in combination with PL-B): 0.625
FIC index ([3]; in combination with RFP): 0.281
FIC index ([3]; in combination with TC): 0.375
combinational effect with other antibacterial compounds [3]: additive or synergistic effect
MIC ([4]; AVI added at 4 μg/mL): <0.015 µg/mL
MIC ([4]; CVA added at 4 μg/mL): <0.015 µg/mL
MIC ([4]; NAC added at 4 μg/mL): <0.015 µg/mL
MIC ([4]; SBT added at 4 μg/mL): <0.015 µg/mL
MIC ([4]; TAZ added at 4 μg/mL): <0.015 µg/mL
MIC ([4]; VAB added at 4 μg/mL): 0.06 µg/mL
MIC ([4]; ZID added at 4 μg/mL): <0.015 µg/mL
MIC [4, 11]: 0.12 µg/mL
MIC ([5]; AVI added at 4 μg/mL): 0.25 µg/mL
MIC ([5]; NAC added at 4 μg/mL): <0.015 µg/mL
MIC ([5]; VAB added at 4 μg/mL): 1 µg/mL
MIC ([5]; ZID added at 4 μg/mL): <0.015 µg/mL
MIC [5, 11]: 2 µg/mL
antibacterial activity in combination with a β-lactamase inhibitor versus without [5]: higher antibacterial activity
MIC ([6]; AVI added at 4 μg/mL): 0.12 µg/mL
MIC ([6]; NAC added at 4 μg/mL): 0.03 µg/mL
MIC ([6]; ZID added at 4 μg/mL): <0.015 µg/mL
MIC [6, 11]: 0.5 µg/mL
MIC ([7]; NAC added at 4 μg/mL): 0.06 µg/mL
MIC ([7]; ZID added at 4 μg/mL): <0.015 µg/mL
MIC [7, 11]: 0.5 µg/mL
MIC [8, 11]: 1 µg/mL
MIC ([8]; with AVI at 4 μg/mL): 0.06 µg/mL
MIC ([8]; with SBT at 4 μg/mL): 0.5 µg/mL
MIC ([8]; with TAZ at 4 μg/mL): 0.25 µg/mL
MIC ([8]; with VAB at 4 μg/mL): 0.12 µg/mL
antibacterial activity in combination with two β-lactamase inhibitors [9]: High antibacterial activity

Compound: C[C@@H](O)[C@H]1C(=O)N2C(C(=O)O)=C(S[C@@H]3CN[C@H](C(=O)N(C)C)C3)[C@H](C)[C@H]12 [MEPM, meropenem hydrate, reference compound]
MIC ([5]; Klebsiella pneumoniae, test compound alone (β-lactamase inhibitor N/A), read-out: MIC): 32 µg/mL
MIC ([6]; Klebsiella pneumoniae, test compound alone (β-lactamase inhibitor N/A)): > 128 µg/mL
MIC [10, 12]: > 32 µg/mL
MIC [9, 13]: > 32 µg/mL

Compound: CC1(C)[C@H](C(=O)O)N2C(=O)C[C@H]2S1(=O)=O [SBT, sulbactam sodium]
MIC ([10]; Acinetobacter): > 32 µg/mL
MIC ([9]; Acinetobacter): > 32 µg/mL

Compound: Nc1nc(/C(=N/OC2(C(=O)O)CCC2)C(=O)N[C@@H]2C(=O)N3C[C@@](C(=O)O)(N4CCN(NC(=O)C(=O)c5ccc(O)c(O)c5Cl)C4=O)S[C@H]23)cs1 [Compound B]
FIC index ([1]; in combination with CAZ): 0.625
FIC index ([1]; in combination with MPC): 0.508
FIC index ([1]; in combination with PIPC): 0.53
FIC index ([1]; in combination with RFP): 0.531
FIC index ([1]; in combination with TMP): 0.531
FIC index ([2]; in combination with AMK): 0.75
FIC index ([2]; in combination with CAZ): 0.625
FIC index ([2]; in combination with IPM): 0.375
FIC index ([2]; in combination with LVFX): 0.563
FIC index ([2]; in combination with MPC): <0.375
FIC index ([2]; in combination with PIPC): <0.5
FIC index ([2]; in combination with PL-B): 0.156
FIC index ([2]; in combination with RFP): 0.281
FIC index ([2]; in combination with TMP): 0.375
FIC index ([3]; in combination with AMK): 0.375
FIC index ([3]; in combination with CAZ): 0.563
FIC index ([3]; in combination with IPM): 0.5
FIC index ([3]; in combination with LVFX): 0.625
FIC index ([3]; in combination with PIPC): 0.375
FIC index ([3]; in combination with PL-B): 0.531
FIC index ([3]; in combination with RFP): 0.313
FIC index ([3]; in combination with TMP): 0.502
combinational effect with other antibacterial compounds [3]: additive or synergistic effect
MIC ([5]; AVI added at 4 μg/mL): 0.25 µg/mL
MIC ([5]; NAC added at 4 μg/mL): <0.015 µg/mL
MIC ([5]; VAB added at 4 μg/mL): <0.015 µg/mL
MIC ([5]; ZID added at 4 μg/mL): <0.015 µg/mL
MIC [5, 11]: 2 µg/mL
antibacterial activity in combination with a β-lactamase inhibitor versus without [5]: higher antibacterial activity
MIC ([6]; AVI added at 4 μg/mL): 0.12 µg/mL
MIC ([6]; NAC added at 4 μg/mL): <0.015 µg/mL
MIC ([6]; ZID added at 4 μg/mL): <0.015 µg/mL
MIC [6, 11]: 1 µg/mL
MIC ([7]; AVI added at 4 μg/mL): 0.25 µg/mL
MIC ([7]; NAC added at 4 μg/mL): <0.015 µg/mL
MIC ([7]; ZID added at 4 μg/mL): <0.015 µg/mL
MIC [7, 11]: 0.5 µg/mL
MIC [8, 11]: 1 µg/mL
MIC ([8]; with AVI at 4 μg/mL): 0.03 µg/mL
MIC ([8]; with SBT at 4 μg/mL): 0.5 µg/mL
MIC ([8]; with TAZ at 4 μg/mL): 0.12 µg/mL
MIC ([8]; with VAB at 4 μg/mL): 0.03 µg/mL
antibacterial activity in combination with two β-lactamase inhibitors [9]: High antibacterial activity

MIC [10, 12]: > 32 µg/mL
MIC [9, 13]: > 32 µg/mL
Compound: NC(=O)[C@@H]1CC[C@@H]2CN1C(=O)N2OS(=O)(=O)O [AVI, avibactam sodium]

— patent US20220241249A1, “PHARMACEUTICAL COMPOSITION AND KIT CONTAINING NOVEL PENAM DERIVATIVE OR SALT THEREOF AND ONE OR MORE COMPOUNDS SELECTED FROM beta-LACTAMASE INHIBITORY COMPOUND AND ANTIBACTERIAL COMPOUND OR SALTS THEREOF” (priority 2019, published 2022)
